Assay results: publication PMC2646200 (Biochemistry, 2008)

Legend:
PDE8A1 [1] = molecular target: PDE8A1 (Homo sapiens, UniProt O60658, Y748F); assay: 3H-cAMP hydrolysis assay, IC50; type: biochemical
PDE8A1 [2] = molecular target: PDE8A1 (Homo sapiens, UniProt O60658); assay: 3H-cAMP hydrolysis assay, IC50; type: biochemical
purified protein = substrate: [H][C@@]12COP(=O)(O)O[C@@]1([H])[C@@H](O)[C@H](n1cnc3c(=O)[nH]c(N)nc31)O2; assay: purified protein; conditions: Mn2+ ([…] MnCl2)

Sequence of PDE8A1 (Homo sapiens, UniProt O60658, Y748F) (O60658 480-820 Y748F): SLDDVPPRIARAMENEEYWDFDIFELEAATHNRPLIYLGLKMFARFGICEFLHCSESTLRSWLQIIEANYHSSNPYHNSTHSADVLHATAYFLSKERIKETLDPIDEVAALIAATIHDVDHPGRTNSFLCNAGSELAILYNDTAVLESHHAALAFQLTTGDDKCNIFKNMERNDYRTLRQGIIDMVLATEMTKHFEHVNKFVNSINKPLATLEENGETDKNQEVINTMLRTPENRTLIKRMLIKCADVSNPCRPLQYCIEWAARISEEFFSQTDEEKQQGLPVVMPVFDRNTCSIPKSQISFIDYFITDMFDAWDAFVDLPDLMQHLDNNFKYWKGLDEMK

**Q.** For `OCCN(CCO)c1nc(N2CCCCC2)c2nc(N(CCO)CCO)nc(N3CCCCC3)c2n1` [dipyridamole], which IC50 (PDE8A1 [1]) is on record?
**A.** The IC50 was 4.1 ± 0.4 µM.

**Q.** And the IC50 (PDE8A1 [2])?
**A.** The IC50 was 6 ± 0.4 µM.

B1: PDE8A1 (Homo sapiens) (protein)
chain: SLDDVPPRIARAMENEEYWDFDIFELEAATHNRPLIYLGLKMFARFGICEFLHCSESTLRSWLQIIEANYHSSNPYHNSTHSADVLHATAYFLSKERIKETLDPIDEVAALIAATIHDVDHPGRTNSFLCNAGSELAILYNDTAVLESHHAALAFQLTTGDDKCNIFKNMERNDYRTLRQGIIDMVLATEMTKHFEHVNKFVNSINKPLATLEENGETDKNQEVINTMLRTPENRTLIKRMLIKCADVSNPCRPLQYCIEWAARISEEYFSQTDEEKQQGLPVVMPVFDRNTCSIPKSQISFIDYFITDMFDAWDAFVDLPDLMQHLDNNFKYWKGLDEMK
**Q.** Which Km (purified protein) does the source give for B1 here?
**A.** The Km was 1600 ± 100 µM.
